“Also recorded” adds a separate entry of the source.
What was measured:
Daoy cells [1] = assay: MTS cellular metabolic viability assay, Daoy; type: cell-based
[2] = test system: phosphorylated CDK1 at Tyr15; assay: pCDK1; type: cell-based; conditions: Daoy, 24 h; for change in pCDK1(Tyr15) level vs DMSO control: 220 nM, n=3; for pCDK1 ELISA dose-response: 1 μM to 62 nM, EC50 values not determinable
recombinant PLK1 kinase = recombinant PLK1 kinase (Homo sapiens, UniProt P53350); assay: PLK1 recombinant kinase LANCE TR-FRET assay; type: biochemical
recombinant PLK1 kinase, sequence (P53350 whole entry): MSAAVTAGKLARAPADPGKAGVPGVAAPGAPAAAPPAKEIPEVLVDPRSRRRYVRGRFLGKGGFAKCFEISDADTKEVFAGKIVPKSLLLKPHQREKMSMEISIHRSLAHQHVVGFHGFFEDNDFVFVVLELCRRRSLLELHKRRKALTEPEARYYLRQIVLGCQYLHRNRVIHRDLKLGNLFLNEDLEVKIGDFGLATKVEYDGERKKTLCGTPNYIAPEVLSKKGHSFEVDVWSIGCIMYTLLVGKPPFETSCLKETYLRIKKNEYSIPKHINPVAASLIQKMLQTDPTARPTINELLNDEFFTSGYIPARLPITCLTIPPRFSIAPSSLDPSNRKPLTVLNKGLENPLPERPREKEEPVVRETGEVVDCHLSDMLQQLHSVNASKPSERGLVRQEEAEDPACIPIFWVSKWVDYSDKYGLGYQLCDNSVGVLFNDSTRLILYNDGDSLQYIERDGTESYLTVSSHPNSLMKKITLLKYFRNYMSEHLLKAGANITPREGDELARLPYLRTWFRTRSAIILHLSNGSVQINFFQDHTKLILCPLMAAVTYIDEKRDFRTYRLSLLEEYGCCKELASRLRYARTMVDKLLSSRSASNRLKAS

[3] = test system: advanced refractory solid tumors; conditions: Phase I, single agent; cited from earlier work
[4] = test system: phosphorylated CDK1 at Tyr15; conditions: read-out: pCDK1 ELISA EC50; Daoy; previously determined; cited from earlier work
[5] = molecular target: Src family tyrosine kinase YES1; conditions: read-out: YES1 IC50; radiolabeled ATP kinase assay; cited from earlier work
Daoy cells [6] = conditions: for concentration with appreciable cytotoxicity, not before 48 hours: from 48 h
8 other kinases = conditions: 1.0 μM, profile of 223 kinases; cited from earlier work
in vitro = conditions: human
WEE1 = conditions: read-out: WEE1 IC50; radiolabeled ATP kinase assay; cited from earlier work
ONS-76 cells = assay: MTS cellular metabolic viability assay, ONS-76; type: cell-based; conditions: ONS-76, 72 h
recombinant WEE1 = recombinant WEE1 (Homo sapiens, UniProt P30291); assay: WEE1 recombinant kinase TR-FRET; type: binding
recombinant WEE1, sequence (P30291 whole entry): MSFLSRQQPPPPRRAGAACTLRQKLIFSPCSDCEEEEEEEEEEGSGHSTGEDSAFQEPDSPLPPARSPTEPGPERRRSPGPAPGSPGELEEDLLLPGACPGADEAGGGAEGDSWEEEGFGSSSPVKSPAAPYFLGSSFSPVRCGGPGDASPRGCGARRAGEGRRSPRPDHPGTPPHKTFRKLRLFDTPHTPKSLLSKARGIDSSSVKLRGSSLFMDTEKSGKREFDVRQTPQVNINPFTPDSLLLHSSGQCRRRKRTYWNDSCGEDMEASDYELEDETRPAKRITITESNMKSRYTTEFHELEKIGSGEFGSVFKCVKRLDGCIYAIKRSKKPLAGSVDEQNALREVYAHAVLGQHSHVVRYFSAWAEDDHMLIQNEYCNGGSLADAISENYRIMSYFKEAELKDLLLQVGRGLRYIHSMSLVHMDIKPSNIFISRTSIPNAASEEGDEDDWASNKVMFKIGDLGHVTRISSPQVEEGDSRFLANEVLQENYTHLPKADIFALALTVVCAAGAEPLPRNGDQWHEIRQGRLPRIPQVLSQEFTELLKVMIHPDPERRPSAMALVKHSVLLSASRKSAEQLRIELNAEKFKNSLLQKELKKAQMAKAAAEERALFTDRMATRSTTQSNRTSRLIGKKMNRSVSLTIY

C=CCn1c(=O)c2cnc(Nc3ccc(N4CCN(C)CC4)cc3)nc2n1-c1cccc(C(C)(C)O)n1 [AZD1775, 2-allyl-1-(6-(2-hydroxypropan-2-yl)pyridin-2-yl)-6-((4-(4-methylpiperazin-1-yl)phenyl)amino)-1,2-dihydro-3H-pyrazolo[3,4-d]pyrimidin-3-one, reference compound]
EC50 (Daoy cells [1]; Homo sapiens, read-out: MTS EC50 used to set the concentration range, Daoy): 0.15 µM | change in pCDK1(Tyr15) level vs DMSO control [2]: statistically significant decrease in pCDK1 levels | pCDK1 ELISA dose-response [2]: comparable effects on pCDK1 levels | IC50 (recombinant PLK1 kinase): 0.0776 ± 0.0093 µM | dose-limiting toxicities [3]: supraventricular tachyarrhythmia and myelosuppression | EC50 [4]: 0.22 µM | IC50 [5]: 0.014 µM | concentration with cytotoxic effects within 24 hours (Daoy cells [6]; 24 h): > 600 nM | concentration with cytotoxic effects after 72 hours (Daoy cells [6]; 72 h): > 75 nM | inhibition of 8 other kinases (8 other kinases): > 80% | EC50 at 72 h (in vitro; Daoy cells): 0.188 ± 0.026 µM | IC50 (WEE1): 0.005 µM

C=CCn1c(=O)c2cnc(Nc3ccccc3)nc2n1-c1cccc(C(C)(C)O)n1 [Compound 24, 2-allyl-1-(6-(2-hydroxypropan-2-yl)pyridin-2-yl)-6-(phenylamino)-1,2-dihydro-3H-pyrazolo[3,4-d]pyrimidin-3-one]
change in pCDK1(Tyr15) level vs DMSO control [2]: significant increases in pCDK1 levels

C=CCn1c(=O)c2cnc(Nc3cccc(N(C)C)c3)nc2n1-c1cccc(C(C)(C)O)n1 [Compound 25, 2-allyl-6-((3-(dimethylamino)phenyl)amino)-1-(6-(2-hydroxypropan-2-yl)pyridin-2-yl)-1,2-dihydro-3H-pyrazolo[3,4-d]pyrimidin-3-one]
change in pCDK1(Tyr15) level vs DMSO control [2]: significant increases in pCDK1 levels

C=CCn1c(=O)c2cnc(Nc3ccc(CCN(C)C)cc3)nc2n1-c1cccc(C(C)(C)O)n1 [Compound 28, 2-allyl-6-((4-(2-(dimethylamino)ethyl)phenyl)amino)-1-(6-(2-hydroxypropan-2-yl)pyridin-2-yl)-1,2-dihydro-3H-pyrazolo[3,4-d]pyrimidin-3-one]
change in pCDK1(Tyr15) level vs DMSO control [2]: statistically significant decrease in pCDK1 levels | pCDK1 ELISA dose-response [2]: comparable effects on pCDK1 levels | IC50 (recombinant PLK1 kinase): 0.27 ± 0.029 µM | concentration with some cytotoxicity within 24 hours (Daoy cells [6]; 24 h): 1200 nM | EC50 at 72 h (in vitro): 0.651 ± 0.016 µM

C=CCn1c(=O)c2cnc(Nc3ccc(OCCN(C)C)cc3)nc2n1-c1cccc(C(C)(C)O)n1 [Compound 29, 2-allyl-6-((4-(2-(dimethylamino)ethoxy)phenyl)amino)-1-(6-(2-hydroxypropan-2-yl)pyridin-2-yl)-1,2-dihydro-3H-pyrazolo[3,4-d]pyrimidin-3-one]
MTS % effect (activity) at 600 nM, Daoy (Daoy cells [1]; 72 h, 600 nM): 81% | change in pCDK1(Tyr15) level vs DMSO control [2]: statistically significant decrease in pCDK1 levels | pCDK1 ELISA dose-response [2]: comparable effects on pCDK1 levels | IC50 (recombinant PLK1 kinase): 0.161 ± 0.01 µM | CellTox Green dose-response / EC50 determination (Daoy cells [6]; 72 h, up to 2400 nM): Sigmoidal dose-response curves were not obtained; also recorded: did not display sufficient cytotoxicity for EC50 determination | concentration with appreciable cytotoxicity, not before 48 hours (Daoy cells [6]): > 300 nM

C=CCn1c(=O)c2cnc(Nc3ccc(N4CCN(C)CC4)cc3)nc2n1-c1cccc(C(C)(C)O)c1 [Compound 31, 2-allyl-1-(3-(2-hydroxypropan-2-yl)phenyl)-6-((4-(4-methylpiperazin-1-yl)phenyl)amino)-1,2-dihydro-3H-pyrazolo[3,4-d]pyrimidin-3-one]
change in pCDK1(Tyr15) level vs DMSO control [2]: did not cause a significant reduction in pCDK1 levels | IC50 (recombinant PLK1 kinase): 0.394 ± 0.037 µM | MTS % effect at 1.16 μM, ONS-76 (ONS-76 cells): 57% | concentration with appreciable cytotoxicity, not before 48 hours (Daoy cells [6]): > 300 nM

C=C(C)c1cccc(-n2[nH]c(=O)c3cnc(Nc4ccc(N5CCN(C)CC5)cc4)nc32)n1 [Compound 34, 6-((4-(4-methylpiperazin-1-yl)phenyl)amino)-1-(6-(prop-1-en-2-yl)pyridin-2-yl)-1,2-dihydro-3H-pyrazolo[3,4-d]pyrimidin-3-one]
IC50 (recombinant WEE1): 0.19 ± 0.012 µM

Reference: article PMC6370589 (ChemMedChem, 2018)
